Measured values: US12570657B2, “Mesylate salts of heterocyclic cytokinins, compositions containing these derivatives and use thereof” (UNIVERZITA PALACKEHO V OLOMOUCI, priority 2020, dated 2026)
Read-outs that look alike come from different tables or passages of the source.

Legend:
[1] = Aqueous solubility: concentration of saturated solution by HPLC; type: physicochemical; settings: for solubility thermodynamic: thermodynamic from solid
Experimental: Aqueous solubility was measured using the following protocol. Supersaturated solution of meta-topolin mesylate salt was prepared. The solutions were filtered off from visible undissolved particles of the salt to obtain homogenic saturated solution. Saturated solution was diluted 1:10 000 and measured using HPLC Alliance Waters 2690 with C18 Symmetry column with the diameter 2.1 mm and 150 mm length with a porosity of 5 μm. The sample was dissolved in the mobile phase (MeOH: HCOONH4-1:9). The sample was washed with a methanol gradient (10-90%, 35 min) at pH 4 and a flow rate of 0.3 ml/min. The absorbances of the components were detected in the UV region at 210-400 nm. The peak area of meta-topolin mesylate salt was 595 027. The standard was measured as shown in the Table 9 below, Obtained peak area was compared to area peaks measured at certain concentration and the final concentration of saturated solution was determined
Solubility of other cytokinin (CK) mesylates was also determined by this method and the concentrations of saturated solutions are given below in Table 10: […]

[2] = test system: cytokinin-dependent tobacco callus; assay: Tobacco callus biotest (stimulation of plant cell division); type: cell-based, Nicotiana tabacum L. cv. Wisconsin 38; settings: callus growth at concentration with highest activity; 10^−5 M BAP = 100%
[3] = test system: K562 (chronic myeloid leukemia); assay: In vitro cytotoxicity, Calcein AM assay, K-562; type: cell-based; settings: 3-day Calcein-AM assay
How it was run: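 Seed ~10,000 cells/well; 12 h later add test compounds; incubate 72 h, 37 °C, 5% CO2; add Calcein AM to 1 μg/ml final; incubate 1 h; read calcein fluorescence. Vehicle control DMSO.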

[4] = test system: winter wheat leaf segments; assay: Senescence bioassay: retention of chlorophyll in excised winter wheat leaf tips; type: in vivo, Triticum aestivum cv. Hereward; settings: chlorophyll retention at concentration with highest activity; 10^−4 M BAP = 100%
How it was run: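 First-leaf tips (~35 mm, 5 per well, 100 mg) from 7-day-old wheat cv. Hereward seedlings placed basal end in compound solution (stock 10^−3 M, bases via DMSO) and kept 96 h in dark at 25 °C. Chlorophyll extracted in 80% ethanol at 80 °C for 10 min, A665 read; activity relative to 10^−4 M BAP as 100%, five replicates.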

[5] = test system: retinal epitelium cells ARPE-19; assay: Cytotoxicity for non-cancer cells, resazurine reduction assay, ARPE-19
Experimental: It is used for viability testing of both bacterial and eukaryotic cells. […] Cultivation medium was DMEM with 10% FBS. Before the experiment, the cells were subcultured for 2 weeks. For the cytotoxicity evaluation, the cells were trypsinized and pipetted into 96 well plates (5000 cells per well in 80 microliters). After 24 hours, 5× concentrated solutions of the tested compounds in the medium were added. […] IC50 values were calculated from dose response curves using drc library for R programming environment.

[6] = saturated solution in water, free cytokinin base, read-out: c of free CK base
[7] = saturated solution in water, cytokinin mesylate, read-out: c of CK mesylate
[8] = resazurin, 72 hour treatment, ARPE-19

| Compound | solubility thermodynamic [1, 6] | activity (%) [10^−5 mol · l^−1 BAP = 100%] [2] | IC50 ([3]; Homo sapiens, K562, 72 h) | activity (%) [10^−4 mol · l^−1 BAP = 100%] [4] | solubility thermodynamic [1, 7] | IC50 ([3]; mesylate) | Cytotoxicity for Fibroblasts (GI20) ARPE-19 [5, 8] | solubility thermodynamic ([1]; water) | Cytotoxicity for Fibroblasts (GI20) ARPE-19 ([5]; human, 72 h) | c of CK mesylate ([1]; saturated solution in water, cytokinin mesylate) | concentration of saturated solution ([1]; water) | solubility thermodynamic ([1]; water, read-out: concentration of saturated solution) |
| --- | --- | --- | --- | --- | --- | --- | --- | --- | --- | --- | --- | --- |
| COc1cccc(CNc2ncnc3nc[nH]c23)c1 [3MeOBAP, 6-(3-methoxybenzylamino)purine] | 210 µM | 76% | > 167 µM | 101% | – | – | – | – | – | – | – | – |
| CS(=O)(=O)O.c1ccc(CNc2ncnc3nc[nH]c23)cc1 [BAP mesylate, 6-benzylaminopurine mesylate] | – | 104% | – | 108% | 354000 µM | > 167 µM | >100 μM | – | – | – | – | – |
| c1ccc(CNc2ncnc3nc[nH]c23)cc1 [BAP, 6-benzylaminopurine] | – | 100% | 139 µM | 100% | – | – | – | 370 µM | >100 μM | – | – | – |
| CS(=O)(=O)O.Oc1cccc(CNc2ncnc3nc[nH]c23)c1 [mT mesylate, 6-(3-hydroxybenzylamino)purine mesylate] | – | 111% | – | 109% | 24000 µM | 142 µM | >100 μM | – | – | 24,011 mM | approximately 24010,81 μM | 8000 µg/mL |
| Oc1cccc(CNc2ncnc3nc[nH]c23)c1 [meta-topolin (mT), 6-(3-hydroxybenzylamino)purine] | 60 µM | 105% | 128 µM | 117% | – | – | >100 μM | – | – | – | 60 µg/mL | – |
| Oc1ccccc1CNc1ncnc2nc[nH]c12 [ortho-topolin (oT), 6-(2-hydroxybenzylamino)purine] | 30 µM | 86% | > 167 µM | 67% | – | – | >100 μM | – | – | – | – | – |
